According to ChEMBL document CHEMBL5154654, “Design, synthesis and biological evaluation of 7-((7H-pyrrolo[2,3-d]pyrimidin-4-yl)oxy)-2,3-dihydro-1H-inden-1-one derivatives as potent FAK inhibitors for the treatment of ovarian cancer” (Eur J Med Chem, 2022):
Values after ≈ are worked out from the molar mass of the structure shown.

Key:
[1] = biological target: Focal adhesion kinase 1 (Homo sapiens, UniProt Q05397); experiment: Inhibition of FAK (unknown origin) using Fluorescein-Poly GAT as substrate incubated for 30 mins and measured after 60 mins by Lanthascreen assay
Chain of Focal adhesion kinase 1 (Q05397 whole entry): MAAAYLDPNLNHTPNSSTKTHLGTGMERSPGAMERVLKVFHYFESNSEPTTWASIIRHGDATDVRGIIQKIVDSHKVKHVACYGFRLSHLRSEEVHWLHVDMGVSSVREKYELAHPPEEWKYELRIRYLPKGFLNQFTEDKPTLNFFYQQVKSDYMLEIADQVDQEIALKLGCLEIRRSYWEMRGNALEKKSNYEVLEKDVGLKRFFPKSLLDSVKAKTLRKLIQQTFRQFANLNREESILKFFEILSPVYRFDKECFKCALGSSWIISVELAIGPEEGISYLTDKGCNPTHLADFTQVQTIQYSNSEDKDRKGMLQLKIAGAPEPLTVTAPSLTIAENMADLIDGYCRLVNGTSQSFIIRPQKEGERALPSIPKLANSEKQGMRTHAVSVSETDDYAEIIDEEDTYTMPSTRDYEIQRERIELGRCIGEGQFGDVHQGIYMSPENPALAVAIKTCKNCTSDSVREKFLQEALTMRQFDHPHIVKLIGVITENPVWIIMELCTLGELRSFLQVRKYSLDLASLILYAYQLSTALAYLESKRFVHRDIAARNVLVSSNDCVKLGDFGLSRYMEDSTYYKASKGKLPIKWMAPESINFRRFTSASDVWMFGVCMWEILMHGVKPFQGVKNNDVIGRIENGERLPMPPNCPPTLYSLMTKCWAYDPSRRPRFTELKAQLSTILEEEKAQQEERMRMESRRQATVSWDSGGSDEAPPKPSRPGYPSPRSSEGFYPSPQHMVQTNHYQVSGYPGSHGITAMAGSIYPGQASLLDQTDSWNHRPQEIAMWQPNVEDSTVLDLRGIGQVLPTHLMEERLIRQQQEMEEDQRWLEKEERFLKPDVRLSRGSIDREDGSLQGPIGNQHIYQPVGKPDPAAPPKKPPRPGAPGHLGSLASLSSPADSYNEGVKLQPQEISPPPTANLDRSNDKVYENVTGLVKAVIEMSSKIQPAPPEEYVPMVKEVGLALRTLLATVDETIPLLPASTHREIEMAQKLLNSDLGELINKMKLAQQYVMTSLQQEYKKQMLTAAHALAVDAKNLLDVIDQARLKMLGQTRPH

[2] = Aqueous solubility of compound; assay type: physicochemical; settings: aqueous (not further specified)
[3] = Metabolic stability in human liver microsomes assessed as half-life incubated for 120 mins in presence of NADPH by LC-MS/MS analysis; assay type: ADME, Microsome
[4] = Metabolic stability in human liver microsomes assessed as parent compound remaining incubated for 120 mins in presence of NADPH by LC-MS/MS analysis; assay type: ADME, Microsome; settings: read-out: Stability
[5] = Metabolic stability in human liver microsomes assessed as intrinsic clearance incubated for 120 mins in presence of NADPH by LC-MS/MS analysis; assay type: ADME, Microsome; settings: read-out: CLH
[6] = biological target: Receptor-type tyrosine-protein kinase FLT3 (Homo sapiens) (UniProt P36888); experiment: Inhibition of FLT3 (unknown origin) at 1 uM incubated for 40 mins in presence of Mg/ATP mix relative to control
Chain of Receptor-type tyrosine-protein kinase FLT3 (Homo sapiens) (P36888 whole entry): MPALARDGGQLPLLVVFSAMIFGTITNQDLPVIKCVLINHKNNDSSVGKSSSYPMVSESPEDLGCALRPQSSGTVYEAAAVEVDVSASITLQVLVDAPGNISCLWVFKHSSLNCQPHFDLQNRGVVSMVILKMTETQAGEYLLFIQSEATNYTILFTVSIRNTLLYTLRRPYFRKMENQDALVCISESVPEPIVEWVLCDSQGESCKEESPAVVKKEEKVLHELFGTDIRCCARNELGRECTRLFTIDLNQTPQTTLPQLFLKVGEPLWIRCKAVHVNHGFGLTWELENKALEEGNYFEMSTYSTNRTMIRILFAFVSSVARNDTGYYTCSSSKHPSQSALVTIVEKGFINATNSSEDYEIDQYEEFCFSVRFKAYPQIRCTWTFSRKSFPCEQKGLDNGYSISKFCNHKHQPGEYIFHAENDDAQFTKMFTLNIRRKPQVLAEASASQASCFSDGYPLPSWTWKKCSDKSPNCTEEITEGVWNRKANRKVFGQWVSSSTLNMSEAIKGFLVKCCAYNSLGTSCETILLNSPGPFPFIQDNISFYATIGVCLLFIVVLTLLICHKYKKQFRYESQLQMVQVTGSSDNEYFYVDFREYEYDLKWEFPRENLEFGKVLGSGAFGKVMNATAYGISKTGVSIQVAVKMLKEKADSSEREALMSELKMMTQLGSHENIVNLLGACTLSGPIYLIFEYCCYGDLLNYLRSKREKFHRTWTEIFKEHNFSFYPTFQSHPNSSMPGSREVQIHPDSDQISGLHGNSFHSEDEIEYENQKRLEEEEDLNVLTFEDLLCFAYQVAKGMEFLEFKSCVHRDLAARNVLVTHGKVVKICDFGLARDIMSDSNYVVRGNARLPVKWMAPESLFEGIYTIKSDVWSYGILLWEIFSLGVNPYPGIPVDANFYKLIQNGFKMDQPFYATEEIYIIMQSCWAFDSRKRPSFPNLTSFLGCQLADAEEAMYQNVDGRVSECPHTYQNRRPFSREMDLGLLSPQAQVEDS

[7] = organism: Homo sapiens; experiment: Inhibition of MEK (unknown origin) at 1 uM incubated for 40 mins in presence of Mg/ATP mix relative to control

IC50 [1]	Compound	further results
9.05 nM	COc1nc(N2CCN(C)CC2)ccc1Nc1nc(Oc2cccc3c2C(=O)CC3)c2cc[nH]c2n1	–
10.5 nM	CN1CCN(c2ccc(Nc3nc(Oc4cccc5c4C(=O)CC5)c4cc[nH]c4n3)cc2)CC1	–
113 nM	COc1cc(N2CCOCC2)ccc1Nc1nc(Oc2cccc3c2C(=O)CC3)c2sccc2n1	–
245 nM	O=C1CCc2cccc(Oc3nc(Nc4ccc(N5CCOCC5)cc4)nc4ccsc34)c21	–
3.86 nM	COc1cc(N2CCN(C)CC2)ccc1Nc1nc(Oc2cccc3c2C(=O)CC3)c2cc[nH]c2n1	solubility [2]: 13.6 µg/mL (≈ 28.1 µM); half-life [3]: > 2 h; remaining at 2 h [4]: 62.7%; CLint scaled [5]: 52 mL/min/kg
654 nM	COc1cc(N2CCOCC2)ccc1Nc1nc(Oc2cccc3c2C(=O)CC3)c2ccccc2n1	–
99.8 nM	CN1CCN(c2ccc(Nc3nc(Oc4cccc5c4C(=O)CC5)c4cc[nH]c4n3)c(C(F)(F)F)c2)CC1	–
2.04 nM	COc1cc(N2CCN(C)CC2)ccc1Nc1nc(Oc2ccc(C)c3c2C(=O)CC3)c2cc[nH]c2n1	solubility [2]: 7.9 µg/mL (≈ 15.8 µM); half-life [3]: 1.65 h; remaining at 2 h [4]: 42.2%; CLint scaled [5]: 8.8 mL/min/kg
41.4 nM	COc1cc(N2CCN(C)CC2)ccc1Nc1nc(Oc2cccc3c2C(=O)CC3)c2sccc2n1	–
20.6 nM	CN1CCN(c2ccc(Nc3nc(Oc4cccc5c4C(=O)CC5)c4cc[nH]c4n3)cc2C#N)CC1	–
945 nM	COc1cc(N2CCC(N3CCN(C)CC3)CC2)ccc1Nc1nc(Oc2cccc3c2C(=O)CC3)c2ccsc2n1	–
206 nM	Cc1cc(Nc2nc(Oc3cccc4c3C(=O)CC4)c3cc[nH]c3n2)n(C(C)C)n1	–
110 nM	CN1CCN(c2ccc(Nc3nc(Oc4cccc5c4C(=O)CC5)c4sccc4n3)cc2)CC1	–

Continued, compound first:

Compound	IC50 [1]	further results
COc1cc(N2CCC(N3CCN(C)CC3)CC2)ccc1Nc1nc(-n2ccc3ccccc32)c2cc[nH]c2n1	144 nM	–
COc1cc(N2CCC(N3CCN(C)CC3)CC2)ccc1Nc1nc(Oc2cccc3c2C(=O)CC3)c2[nH]ccc2n1	> 1000 nM	–
CN1CCN(c2ccc(Nc3nc(Oc4cccc5c4C(=O)CC5)c4ccsc4n3)cc2)CC1	> 1000 nM	–
O=C1CCc2cccc(Oc3nc(Nc4ccc(N5CCOCC5)cc4)nc4ccccc34)c21	> 1000 nM	–
O=C1CCc2cccc(Oc3nc(Nc4ccc(N5CCOCC5)cc4)nc4[nH]ccc34)c21	12.2 nM	–
Cc1ccc(Oc2nc(Nc3ccc(N4CCC(N5CCN(C)CC5)CC4)cc3)nc3[nH]ccc23)c2c1CCC2=O	2.47 nM	solubility [2]: 38 µg/mL (≈ 68.9 µM); half-life [3]: 1.57 h; remaining at 2 h [4]: 41.5%; CLint scaled [5]: 93 mL/min/kg
CN1CCN(c2ccc(Nc3nc(Oc4cccc5c4C(=O)CC5)c4ccccc4n3)cc2)CC1	> 1000 nM	–
Cc1cc(Nc2nc(Oc3cccc4c3C(=O)CC4)c3cc[nH]c3n2)ccc1N1CCN(CC2CC2)CC1	4.2 nM	half-life [3]: < 0.5 h; remaining at 2 h [4]: 15.3%; CLint scaled [5]: > 29 mL/min/kg
COc1cc(N2CCN(C)CC2)ccc1Nc1nc(-n2ccc3ccccc32)c2cc[nH]c2n1	166 nM	–
CN1CCN(C2CCN(c3ccc(Nc4nc(Oc5cccc6c5C(=O)CC6)c5cc[nH]c5n4)cc3)CC2)CC1	2.91 nM	solubility [2]: 39.4 µg/mL (≈ 73.3 µM); half-life [3]: 1.55 h; remaining at 2 h [4]: 42.2%; CLint scaled [5]: 93 mL/min/kg
CNC(=O)c1ccc(Nc2ncc(C(F)(F)F)c(NCc3nccnc3N(C)S(C)(=O)=O)n2)cc1	–	inhibition [6]: > 90%; inhibition [7]: > 90%
CN1CCN(c2ccc(Nc3nc(Oc4cccc5c4C(=O)CC5)c4cc[nH]c4n3)cc2F)CC1	5.64 nM	–
